Values of other authors, collected in patent publication US20180273582A1, “SMALL MOLECULE AFFINITY MEMBRANE PURIFICATION SYSTEMS AND USES THEREOF” (UNIVERSITY OF NOTRE DAME, priority 2015, published 2018).

Molecular target: nucleotide binding site (NBS) of antibody
Details: antibody NBS region; from reference [43]; read-out: Kd (binding affinity to the conserved NBS region)

SMILES: O=C(O)CCCc1c[nH]c2ccccc12 [IBA, indole-3-butyric acid]
- Kd: 1 to 8 µM
